What was measured:
Glucocorticoid receptor [1] = biological target: T1, Glucocorticoid receptor (Homo sapiens, UniProt P04150); assay: Antagonist activity at glucocorticoid receptor in human HepG2 cells assessed as inhibition of dexamethasone-induced tyrosine amino transferase activity preincubated for 30 mins followed by dexamethasone addition measured after 20 hrs; format: cell-based
T1 sequence (P04150 whole entry): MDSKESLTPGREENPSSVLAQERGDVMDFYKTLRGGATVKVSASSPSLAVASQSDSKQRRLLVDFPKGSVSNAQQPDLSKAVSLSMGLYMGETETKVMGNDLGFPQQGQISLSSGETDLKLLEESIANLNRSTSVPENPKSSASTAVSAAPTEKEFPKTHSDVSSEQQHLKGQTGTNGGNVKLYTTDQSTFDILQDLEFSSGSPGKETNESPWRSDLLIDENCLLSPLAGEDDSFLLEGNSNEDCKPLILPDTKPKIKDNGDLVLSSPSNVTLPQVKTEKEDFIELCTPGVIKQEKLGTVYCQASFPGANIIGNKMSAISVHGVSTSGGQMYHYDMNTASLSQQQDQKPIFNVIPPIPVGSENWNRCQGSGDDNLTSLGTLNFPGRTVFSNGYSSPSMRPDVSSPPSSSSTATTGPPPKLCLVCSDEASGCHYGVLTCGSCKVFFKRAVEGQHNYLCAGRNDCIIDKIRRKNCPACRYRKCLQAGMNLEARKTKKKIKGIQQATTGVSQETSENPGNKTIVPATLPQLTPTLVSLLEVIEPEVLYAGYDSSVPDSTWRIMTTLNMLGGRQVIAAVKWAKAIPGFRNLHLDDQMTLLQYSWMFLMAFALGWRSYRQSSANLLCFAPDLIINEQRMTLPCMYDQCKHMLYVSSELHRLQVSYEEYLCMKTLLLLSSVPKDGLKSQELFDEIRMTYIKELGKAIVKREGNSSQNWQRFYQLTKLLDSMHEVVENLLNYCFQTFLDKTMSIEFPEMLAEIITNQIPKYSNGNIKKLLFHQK

androgen receptor = biological target: T2, androgen receptor (Homo sapiens, UniProt P10275); assay: Inhibition of radioligand binding to androgen receptor (unknown origin) at 1 uM relative to control
T2 sequence (P10275 whole entry): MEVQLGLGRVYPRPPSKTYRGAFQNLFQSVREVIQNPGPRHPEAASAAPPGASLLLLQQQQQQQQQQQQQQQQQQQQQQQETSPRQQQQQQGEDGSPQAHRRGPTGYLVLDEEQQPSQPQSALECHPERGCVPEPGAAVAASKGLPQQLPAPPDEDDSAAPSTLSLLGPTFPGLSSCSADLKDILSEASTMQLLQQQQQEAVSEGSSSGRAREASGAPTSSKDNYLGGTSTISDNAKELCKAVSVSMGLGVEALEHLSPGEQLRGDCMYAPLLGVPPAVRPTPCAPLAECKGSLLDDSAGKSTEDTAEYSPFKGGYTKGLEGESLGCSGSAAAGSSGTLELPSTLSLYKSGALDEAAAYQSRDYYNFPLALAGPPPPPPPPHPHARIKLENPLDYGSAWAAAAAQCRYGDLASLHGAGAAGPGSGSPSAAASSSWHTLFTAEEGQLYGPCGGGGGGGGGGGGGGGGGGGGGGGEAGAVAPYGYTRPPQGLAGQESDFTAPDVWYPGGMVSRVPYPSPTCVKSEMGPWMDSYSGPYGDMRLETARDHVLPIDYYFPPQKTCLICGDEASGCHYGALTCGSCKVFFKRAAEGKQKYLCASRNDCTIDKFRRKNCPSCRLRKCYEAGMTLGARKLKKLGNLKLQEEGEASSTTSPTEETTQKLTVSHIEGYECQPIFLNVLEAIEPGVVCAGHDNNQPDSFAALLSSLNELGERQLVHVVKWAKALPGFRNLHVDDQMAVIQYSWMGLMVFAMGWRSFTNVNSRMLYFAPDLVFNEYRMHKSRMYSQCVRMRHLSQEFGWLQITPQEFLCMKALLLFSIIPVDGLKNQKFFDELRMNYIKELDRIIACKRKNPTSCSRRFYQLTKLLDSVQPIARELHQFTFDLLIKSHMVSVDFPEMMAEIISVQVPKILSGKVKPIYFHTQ

[2] = biological target: T3, Glucocorticoid receptor (Homo sapiens) (UniProt P04150); assay: Displacement of fluormone GS Red from human glucocorticoid receptor at 1 uM after 4 hrs by fluorescence polarization assay relative to control
T3 sequence (whole entry): T1 sequence (P04150 whole entry)

[3] = biological target: T4, Glucocorticoid receptor (Rattus norvegicus) (UniProt P06536); assay: (§1) Agonist activity at rat glucocorticoid receptor in primary hepatocytes assessed as induction of tyrosine amino transferase activity measured after 20 hrs; format: cell-based
T4 sequence (whole entry): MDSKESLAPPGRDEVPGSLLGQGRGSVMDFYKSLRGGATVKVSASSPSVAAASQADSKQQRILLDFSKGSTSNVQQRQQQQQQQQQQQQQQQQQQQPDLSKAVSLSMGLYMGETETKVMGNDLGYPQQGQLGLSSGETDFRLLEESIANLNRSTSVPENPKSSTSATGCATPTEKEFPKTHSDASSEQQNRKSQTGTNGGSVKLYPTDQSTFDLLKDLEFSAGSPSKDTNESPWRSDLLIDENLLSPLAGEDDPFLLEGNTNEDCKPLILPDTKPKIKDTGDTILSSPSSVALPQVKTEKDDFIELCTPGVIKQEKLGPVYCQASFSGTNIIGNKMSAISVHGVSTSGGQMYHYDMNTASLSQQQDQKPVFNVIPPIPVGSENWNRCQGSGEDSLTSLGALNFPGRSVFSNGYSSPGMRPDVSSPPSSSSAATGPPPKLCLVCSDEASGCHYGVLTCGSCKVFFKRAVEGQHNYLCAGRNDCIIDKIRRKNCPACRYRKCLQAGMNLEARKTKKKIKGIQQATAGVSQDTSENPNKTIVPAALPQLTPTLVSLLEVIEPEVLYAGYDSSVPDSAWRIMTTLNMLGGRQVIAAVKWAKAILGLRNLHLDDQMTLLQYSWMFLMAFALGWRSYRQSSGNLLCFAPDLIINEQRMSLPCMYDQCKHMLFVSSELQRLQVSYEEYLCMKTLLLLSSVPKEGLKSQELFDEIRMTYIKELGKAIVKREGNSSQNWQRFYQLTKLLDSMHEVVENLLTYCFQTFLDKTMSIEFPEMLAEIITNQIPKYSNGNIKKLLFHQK

Glucocorticoid receptor [4] = biological target: T5, Glucocorticoid receptor (Rattus norvegicus, UniProt P06536); assay: as §1; format: cell-based
T5 sequence (P06536 whole entry): T4 sequence (whole entry)

Cytochrome P450 3A5 [5] = biological target: T6, Cytochrome P450 3A5 (Homo sapiens, UniProt P20815); assay: Inhibition of CYP3A5 (unknown origin); format: ADME
T6 sequence (P20815 whole entry): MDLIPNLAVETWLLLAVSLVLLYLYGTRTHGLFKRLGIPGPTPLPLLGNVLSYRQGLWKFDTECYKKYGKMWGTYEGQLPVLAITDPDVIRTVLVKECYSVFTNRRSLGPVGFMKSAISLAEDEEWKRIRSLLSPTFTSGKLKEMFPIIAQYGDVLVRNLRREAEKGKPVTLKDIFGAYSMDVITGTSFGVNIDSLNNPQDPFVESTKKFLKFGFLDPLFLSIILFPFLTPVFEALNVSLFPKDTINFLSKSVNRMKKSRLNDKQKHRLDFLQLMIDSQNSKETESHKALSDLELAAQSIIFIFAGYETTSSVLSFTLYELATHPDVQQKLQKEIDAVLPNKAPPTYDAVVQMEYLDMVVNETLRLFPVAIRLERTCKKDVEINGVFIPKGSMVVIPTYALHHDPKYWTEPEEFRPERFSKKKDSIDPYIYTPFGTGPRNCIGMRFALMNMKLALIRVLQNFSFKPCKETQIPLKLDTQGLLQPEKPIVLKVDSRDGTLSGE

Cytochrome P450 2C19 = Cytochrome P450 2C19 (Homo sapiens, UniProt P33261); assay: Time-dependent inhibition of CYP2C19 (unknown origin); format: ADME
Cytochrome P450 2C19, sequence (P33261 whole entry): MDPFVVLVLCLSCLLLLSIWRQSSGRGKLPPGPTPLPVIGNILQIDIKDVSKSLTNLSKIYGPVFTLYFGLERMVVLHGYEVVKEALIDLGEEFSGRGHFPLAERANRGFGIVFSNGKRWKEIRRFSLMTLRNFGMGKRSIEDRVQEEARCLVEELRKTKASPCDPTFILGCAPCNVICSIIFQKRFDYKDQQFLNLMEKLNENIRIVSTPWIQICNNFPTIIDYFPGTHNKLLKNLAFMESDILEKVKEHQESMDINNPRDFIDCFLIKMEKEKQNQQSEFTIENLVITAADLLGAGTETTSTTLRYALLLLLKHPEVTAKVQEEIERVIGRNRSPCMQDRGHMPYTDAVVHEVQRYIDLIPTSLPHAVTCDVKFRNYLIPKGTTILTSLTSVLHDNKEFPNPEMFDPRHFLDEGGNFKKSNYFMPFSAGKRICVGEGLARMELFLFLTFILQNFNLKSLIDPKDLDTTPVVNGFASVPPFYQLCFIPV

Cytochrome P450 3A5 [6] = biological target: T6, Cytochrome P450 3A5; assay: Time-dependent inhibition of CYP3A5 (unknown origin); format: ADME
[7] = biological target: T3, Glucocorticoid receptor (Homo sapiens); assay: Agonist activity at glucocorticoid receptor in human primary hepatocytes assessed as induction of tyrosine amino transferase activity measured after 20 hrs relative to control; format: cell-based

Compound `Cn1cc(S(=O)(=O)N2CCC3=Cc4c(cnn4-c4ccc(F)cc4)C[C@]3(C(=O)c3cc(C(F)(F)F)ccn3)C2)cn1` [RELACORILANT] has a Ki (Glucocorticoid receptor [1]) of 0.0072 µM, an inhibition at 1 µM (androgen receptor) of under 10% and an inhibition [2] of 100%. It also gave an Emax [3] of 22%, an EC50 (Glucocorticoid receptor [4]) of over 10 µM and an IC50 (Cytochrome P450 3A5 [5]) of 4.9 µM. For the same compound, the TDI (Cytochrome P450 2C19) was “Not Active”, the TDI (Cytochrome P450 3A5 [6]) was “Not Active” and the Emax [7] was 0%.

Source: ChEMBL document CHEMBL4049426, “Identification of the Clinical Candidate (R)-(1-(4-Fluorophenyl)-6-((1-methyl-1H-pyrazol-4-yl)sulfonyl)-4,4a,5,6,7,8-hexahydro-1H-pyrazolo[3,4-g]isoquinolin-4a-yl)(4-(trifluoromethyl)pyridin-2-yl)methanone (CORT125134): A Selective Glucocorticoid Receptor (GR) Antagonist” (J Med Chem, 2017)
